# From patent publication US12637410B2, “Vesicular monoamine transporter-2 ligands and their use in the treatment of psychostimulant abuse” (priority 2016, dated 2026)
# Read-outs that look alike come from different tables or passages of the source.
# Tests used:
# VMAT2 = target: T1, VMAT2 (Rattus norvegicus, UniProt Q01827); assay: [3H]Dopamine ([3H]DA) uptake assay, vesicular preparation; format: biochemical
# T1 construct: from tissue; host or cells: rat striatum, isolated synaptic vesicles
# hERG channel = target: T2, hERG channel (Homo sapiens, UniProt Q12809); assay: [3H]Dofetilide binding assay, HEK-293 cell membrane preparation; conditions: hERG Binding: Mean Ki (nM)
# T2 construct: purchased; host or cells: HEK-293 cells stably expressing hERG (membranes)
# Protocol: Membranes were suspended in assay buffer (50 mM Tris, 10 mM KCl, 1 mM MgCl2, pH 7.4) prior to the experiment. […] Nonspecific binding was determined in the presence of amitriptyline (1 mM). Samples were incubated for 1 hr. at 24° C., followed by rapid filtration.
# [1] = target: dopamine transporter (DAT) (Rattus norvegicus, UniProt P23977); assay: [3H]DA uptake assay, synaptosomal preparation
# Protocol: [^3H]DA and [3H]5-HT uptake into striatal synaptosomes was determined to evaluate compound inhibition of the dopamine transporter (DAT) and the serotonin transporter (SERT), respectively. […] Assays were performed in duplicate in a total volume of 500 μL (for DAT assays) or 250 μL (for SERT assays). Aliquots of the synaptosomal suspension (25 μL for DAT, 50 μL for SERT) were added to tubes containing assay buffer and various concentrations of analog (1 nM-100 μM), and incubated at 34° C. for 5 min. Nonspecific uptake was determined in the presence of nomifensine (10 μM) for DAT assays or fluoxetine (10 μM) for SERT assays. […] Samples were placed on ice, and 50 μL of 0.1 μM [^3H]DA (for DAT assays) or 25 μL of 0.1 μM [^3H]5-HT (for SERT assays) was added to each tube, and incubated for 10 min at 34° C. Reactions were terminated by addition of 3 mL of ice-cold assay buffer and subsequent filtration and radioactivity retained by the filters was determined by liquid scintillation spectrometry (Tri-Carb 2100TR liquid scintillation analyzer; PerkinElmer Life and Analytical Sciences, Boston, MA).
# [2] = Microsomal assays, rat liver microsomes; conditions: for CLint scaled at 0.08 µM: female, Sprague-Dawley, rat, pH 7.4; for Microsomal stability assays: Species/Half-life (hr) Rat: rat liver microsomes
# Protocol: Each plate holds triplicate samples of two controls (0.4 mM) and up to 14 compounds (0.08 mM) in rat and human liver microsomes. Aliquots of each well of the plate (175 μl of each well) were transferred from the master plate into 5 assay plates. […] NADPH regenerating system solution A (6.05 ml, Fisher Scientific, #NC9255727) was combined with NADPH regenerating system solution B (1.21 ml, Fisher Scientific, #NC9016235) in potassium phosphate buffer (15.8 ml, 0.1 M, pH 7.4, 37° C.). The resulting NADPH solution (43.8 μl) was added to each well of all the 96-well assay plates and mixed with pipette briefly making the final protein and compound concentrations respectively: 0.5 mg/ml, 0.08 μM (0.4 μM for controls). Plates were sealed, and all plates except the 0-hr plate were incubated at 37° C., shaken at a speed of 60 rpm. A single assay plate was tested at each time point: 0.5 hr, 1 hr, 2 hr, and 4 hr. At each time point, 437.5 μL of pre-cooled internal standard was added each well of the plate to quench the reaction. […] 120 μl supernatant was transferred to a 96-well plate, centrifuged again and analyzed by UPLC-MS (Waters Inc., Milford, MA). The compounds and internal standard were detected by selected ion recording (SIR).
# The amount of material was measured as a ratio of peak area to the internal standard and graphed. Using the slope from the initial linear portion of this curve, the degradation rate constant is calculated using equation [1]. The rate constant was then used to calculate the compounds half-life in plasma using equation [2].
# [3] = [3H]dofetilide binding, HEK-293 membranes, mean of n>=3 unless N given
# [4] = [3H]DA uptake, rat vesicular preparation, mean of n>=3 unless N given, read-out: VMAT2 (rat) Inhibition: Mean Ki
# [5] = Table 4, mean, minimally n = 3, read-out: VMAT2 (rat) Inhibition: Mean Ki
# T2 sequence (Q12809 whole entry): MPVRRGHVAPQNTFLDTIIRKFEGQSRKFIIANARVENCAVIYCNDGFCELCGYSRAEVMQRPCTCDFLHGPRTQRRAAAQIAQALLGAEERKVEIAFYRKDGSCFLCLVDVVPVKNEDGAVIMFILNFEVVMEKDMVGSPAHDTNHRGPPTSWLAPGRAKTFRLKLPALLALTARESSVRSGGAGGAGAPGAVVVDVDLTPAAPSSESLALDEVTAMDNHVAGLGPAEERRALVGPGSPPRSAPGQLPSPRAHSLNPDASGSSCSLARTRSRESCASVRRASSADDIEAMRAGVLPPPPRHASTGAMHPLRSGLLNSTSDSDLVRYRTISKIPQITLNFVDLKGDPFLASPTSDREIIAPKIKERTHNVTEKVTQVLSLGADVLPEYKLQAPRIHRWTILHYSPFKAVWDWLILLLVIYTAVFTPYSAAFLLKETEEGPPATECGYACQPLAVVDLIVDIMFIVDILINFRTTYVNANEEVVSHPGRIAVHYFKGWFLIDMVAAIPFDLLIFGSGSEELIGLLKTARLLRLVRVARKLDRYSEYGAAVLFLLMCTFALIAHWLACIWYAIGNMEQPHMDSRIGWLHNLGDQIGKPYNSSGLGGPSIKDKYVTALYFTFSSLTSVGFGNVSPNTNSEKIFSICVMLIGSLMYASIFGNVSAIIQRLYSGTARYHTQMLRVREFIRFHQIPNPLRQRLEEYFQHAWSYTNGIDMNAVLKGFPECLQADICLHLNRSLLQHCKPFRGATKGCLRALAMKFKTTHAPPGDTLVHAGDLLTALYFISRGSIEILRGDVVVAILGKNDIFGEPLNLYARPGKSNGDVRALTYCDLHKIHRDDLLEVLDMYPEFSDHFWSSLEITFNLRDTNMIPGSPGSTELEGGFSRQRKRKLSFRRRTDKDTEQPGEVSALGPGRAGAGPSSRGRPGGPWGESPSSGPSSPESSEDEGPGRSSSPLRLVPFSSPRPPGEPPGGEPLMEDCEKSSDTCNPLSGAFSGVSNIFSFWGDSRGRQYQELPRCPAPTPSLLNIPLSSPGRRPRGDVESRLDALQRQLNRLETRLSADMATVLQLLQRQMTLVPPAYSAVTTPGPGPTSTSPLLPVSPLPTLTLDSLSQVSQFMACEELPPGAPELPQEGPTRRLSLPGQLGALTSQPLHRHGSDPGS
# Sequence of dopamine transporter (DAT) (P23977 whole entry): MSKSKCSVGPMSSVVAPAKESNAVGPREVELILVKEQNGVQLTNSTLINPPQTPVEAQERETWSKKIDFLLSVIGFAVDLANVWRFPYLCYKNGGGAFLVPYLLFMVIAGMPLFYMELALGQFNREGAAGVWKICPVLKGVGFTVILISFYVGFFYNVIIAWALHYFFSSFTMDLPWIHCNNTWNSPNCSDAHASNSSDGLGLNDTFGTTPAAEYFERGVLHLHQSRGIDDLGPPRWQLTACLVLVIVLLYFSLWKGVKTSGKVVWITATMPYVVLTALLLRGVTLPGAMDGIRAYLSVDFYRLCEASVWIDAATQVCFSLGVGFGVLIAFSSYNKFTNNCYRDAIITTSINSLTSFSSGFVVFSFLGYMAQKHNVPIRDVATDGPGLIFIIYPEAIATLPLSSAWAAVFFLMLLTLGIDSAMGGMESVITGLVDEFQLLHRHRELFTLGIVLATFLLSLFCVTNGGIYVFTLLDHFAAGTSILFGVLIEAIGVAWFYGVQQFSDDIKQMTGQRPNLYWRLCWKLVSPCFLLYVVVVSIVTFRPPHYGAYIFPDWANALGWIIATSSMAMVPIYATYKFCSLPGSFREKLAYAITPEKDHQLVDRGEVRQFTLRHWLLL
# T1 sequence (Q01827 whole entry): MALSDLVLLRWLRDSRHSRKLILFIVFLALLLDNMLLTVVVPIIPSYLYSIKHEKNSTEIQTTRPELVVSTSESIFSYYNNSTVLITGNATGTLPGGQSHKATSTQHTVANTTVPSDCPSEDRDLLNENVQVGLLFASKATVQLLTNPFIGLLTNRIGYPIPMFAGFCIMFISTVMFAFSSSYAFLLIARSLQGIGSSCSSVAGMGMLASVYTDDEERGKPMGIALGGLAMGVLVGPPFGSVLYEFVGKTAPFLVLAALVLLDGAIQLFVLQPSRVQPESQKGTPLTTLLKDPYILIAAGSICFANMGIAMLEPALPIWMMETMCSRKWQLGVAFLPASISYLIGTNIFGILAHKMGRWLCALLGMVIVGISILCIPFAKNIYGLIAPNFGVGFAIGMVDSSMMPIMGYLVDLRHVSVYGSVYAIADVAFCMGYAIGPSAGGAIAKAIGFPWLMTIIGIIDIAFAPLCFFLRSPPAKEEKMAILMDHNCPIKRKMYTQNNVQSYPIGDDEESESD
SMILES,Ki (VMAT2),Ki (hERG channel; [3]),also measured
C[C@H](Cc1ccccc1)ONCCc1ccccc1 [Compound 296],20000 nM,–,–
CC(Cc1ccc(F)c(F)c1)NCCCc1ccc(OC(C)C)cc1 (stereo not shown) [Compound 259],104 nM,818 nM,–
CC(Cc1cccc(NC(N)=O)c1)NCCCc1ccc(F)cc1 (stereo not shown) [Compound 306],9 nM,–,"Ki [1]: 2970 nM; CLint scaled at 0.08 µM [2]: 47 mL/min/kg; Ki (hERG channel; Table 4, mean, minimally n = 3): 2750 nM"
CC(Cc1ccccc1)ONCCc1ccccc1 (racemic) [Compound 295],41300 nM,–,–
CC(Cc1ccc(F)cc1)NCCCc1c[nH]c2ccccc12 (stereo not shown) [Compound 91],–,–,Microsomal stability assays: Species/Half-life (hr) Rat [2]: 0.1 h
CC(Cc1ccccc1)N(CCCc1ccc(I)cc1)C(=O)OCc1ccccc1 (stereo not shown) [Compound 290],–,–,Ki (VMAT2; [4]): 4800 nM
CC(Cc1ccc(F)c(F)c1)NCCCc1cccc(Cl)c1Cl (stereo not shown) [Compound 271],42 nM,462 nM,–
CC(Cc1ccc(F)c(F)c1)NCCCc1cccc(-c2cccnc2)c1 (stereo not shown) [Compound 283],41 nM,182 nM,–
CC(Cc1ccc(F)c(F)c1)NCCCc1ccc2nccnc2c1 (stereo not shown) [Compound 232],52 nM,3300 nM,"Ki [1]: 3580 nM; CLint scaled at 0.08 µM [2]: 159 mL/min/kg; Ki (hERG channel; Table 4, mean, minimally n = 3): 2590 nM"
CC(Cc1ccc(F)cc1)NCCCc1ccc(Cl)cc1 (stereo not shown) [Compound 188],–,500 nM,–
CC(Cc1ccc2[nH]cnc2c1)NCCCc1ccc(F)cc1 (stereo not shown) [Compound 303],22 nM,–,"Ki [1]: 4770 nM; CLint scaled at 0.08 µM [2]: 40 mL/min/kg; Ki (hERG channel; Table 4, mean, minimally n = 3): 2900 nM"
CC(Cc1cccc(C(N)=O)c1)NCCCc1ccc(F)cc1 (stereo not shown) [Compound 301],–,–,"Ki [1]: 6070 nM; CLint scaled at 0.08 µM [2]: 22 mL/min/kg; Ki (hERG channel; Table 4, mean, minimally n = 3): 1310 nM; Ki (VMAT2; [5]): 43 nM"
CC(Cc1ccc(F)c(F)c1)NCCCc1ccnc(C(F)(F)F)c1 (stereo not shown) [Compound 247],349 nM,–,–
CC(Cc1ccc(F)c(F)c1)NCCCc1ccc(NS(C)(=O)=O)cc1 (stereo not shown) [Compound 274],45 nM,220 nM,–
CC(Cc1ccc2nccnc2c1)NCCCc1ccc(S(N)(=O)=O)cc1 (stereo not shown) [Compound 305],46 nM,–,"Ki [1]: 20500 nM; CLint scaled at 0.08 µM [2]: 43 mL/min/kg; Ki (hERG channel; Table 4, mean, minimally n = 3): 4390 nM"
CC(=O)Nc1ccc(CCCNC(C)Cc2ccc(Br)cc2)cc1 (stereo not shown) [Compound 276],24 nM,3430 nM,–
CC(Cc1ccc(F)c(F)c1)NCCCc1cccc(Cl)c1 (stereo not shown) [Compound 267],19 nM,1000 nM,–
CC(Cc1ccc(F)c(F)c1)NCCCc1cccc(S(N)(=O)=O)c1 (stereo not shown) [Compound 236],99 nM,2010 nM,–
CC(Cc1ccc(F)c(F)c1)NCCCc1cccc(-c2ccnn2C)c1 (stereo not shown) [Compound 281],51 nM,592 nM,–
CC(Cc1ccc(F)c(F)c1)NCCCc1cccc2ncoc12 (stereo not shown) [Compound 255],54 nM,3370 nM,–
CC(Cc1ccccc1)N(CCCc1ccc(N)cc1)C(=O)OCc1ccccc1 (stereo not shown) [Compound 291],–,–,Ki (VMAT2; [4]): 3100 nM
CC(Cc1ccc(F)c(F)c1)NCCCc1ccc2ncsc2c1 (stereo not shown) [Compound 252],67 nM,1580 nM,–
CC(Cc1ccccc1)N(CCCc1ccc([N+](=O)[O-])cc1)C(=O)OCc1ccccc1 (stereo not shown) [Compound 289],2970 nM,–,–
CC(Cc1ccc(F)c(F)c1)NCCCc1ccccc1Cl (stereo not shown) [Compound 268],28 nM,233 nM,–

SMILES,Ki (VMAT2),Ki (hERG channel; [3]),also measured
CC(Cc1ccc(F)c(F)c1)NCCCc1ccc2cn[nH]c2c1 (stereo not shown) [Compound 233],33 nM,483 nM,–
CC(Cc1ccc(F)cc1)NCCCc1ccc2[nH]ccc2c1 (stereo not shown) [Compound 56],–,1260 nM,Microsomal stability assays: Species/Half-life (hr) Rat [2]: 0.1 h
CC(Cc1ccc(F)c(F)c1)NCCCc1cc(Cl)cc(Cl)c1 (stereo not shown) [Compound 270],38 nM,1500 nM,–
CC(Cc1ccc(F)cc1)NCCCc1ccc(Cl)c(N)c1 (stereo not shown) [Compound 242],38 nM,1440 nM,–
CC(Cc1c[nH]c2ccccc12)NCCCc1ccc(F)cc1 (stereo not shown) [Compound 246],66 nM,731 nM,–
CC(Cc1ccc(F)c(F)c1)NCCCc1ccc(C(C)(C)C)cc1 (stereo not shown) [Compound 264],209 nM,2190 nM,–
CC(Cc1ccc(F)c(F)c1)NCCCc1ccc2[nH]ncc2c1 (stereo not shown) [Compound 234],54 nM,1020 nM,"Ki [1]: 703 nM; CLint scaled at 0.08 µM [2]: 114 mL/min/kg; Ki (hERG channel; Table 4, mean, minimally n = 3): 1020 nM"
CC(Cc1cccc(N)c1)NCCCc1ccc(F)cc1 (stereo not shown) [Compound 310],5 nM,–,"Ki [1]: 2230 nM; CLint scaled at 0.08 µM [2]: 74 mL/min/kg; Ki (hERG channel; Table 4, mean, minimally n = 3): 2730 nM"
CC(C)C(Cc1ccc(F)cc1)NCCCc1ccc(Br)cc1 (stereo not shown) [Compound 140],–,–,Microsomal stability assays: Species/Half-life (hr) Rat [2]: 0.1 h
CC(Cc1ccc(F)c(F)c1)NCCCc1ccc2c(c1)[nH]c(=O)n2C (stereo not shown) [Compound 254],187 nM,–,–
CC(Cc1ccc(F)c(F)c1)NCCCc1ccc(C(=O)O)cc1 (stereo not shown) [Compound 257],6480 nM,> 34700 nM,–
CC(Cc1ccc(F)c(F)c1)NCCCc1cccc(C(F)(F)F)c1 (stereo not shown) [Compound 250],39 nM,4100 nM,–
CC(Cc1ccc(F)cc1)NCCCc1ccc(NS(C)(=O)=O)cc1 (stereo not shown) [Compound 275],53 nM,308 nM,–
CC(Cc1ccc(F)cc1)NCCCc1ccc(N(C)C)cc1 (stereo not shown) [Compound 156],–,49000 nM,–
CC(Cc1ccc(F)c(F)c1)NCCCc1ccc(Cl)c(C(F)(F)F)c1 (stereo not shown) [Compound 273],538 nM,1220 nM,–
CC(Cc1ccc(F)c(F)c1)NCCCc1ccc2ncoc2c1 (stereo not shown) [Compound 256],50 nM,4880 nM,–
CC(Cc1ccccc1)N(CCCc1ccc(O)cc1)C(=O)OC(C)(C)C (stereo not shown) [Compound 288],> 100000 nM,–,–
CC(Cc1c[nH]c2ccccc12)NCCCc1ccc(F)cc1 (stereo not shown) [Compound 277],–,732 nM,"Ki (VMAT2; read-out: VMAT2 (rat) Inhibition: Mean Ki, [3H]DA uptake, rat vesicular preparation, mean of n>=3 unless N given): 66 nM"
COc1ccc(CCCNC(C)Cc2ccncc2)cc1 (stereo not shown) [Compound 172],–,–,Microsomal stability assays: Species/Half-life (hr) Rat [2]: 0.1 h
CC(Cc1ccc(Br)cc1)NCCCc1ccc(N)cc1 (stereo not shown) [Compound 240],48 nM,1130 nM,–
CC(Cc1ccc(F)c(F)c1)NCCCc1ccc2c(c1)C(=O)OC2 (stereo not shown) [Compound 253],268 nM,–,–
CC(Cc1ccc(NC=O)cc1)NCCCc1ccc(F)cc1 (stereo not shown) [Compound 88],12 nM,–,–
CC(Cc1ccc(F)cc1)NCCCc1ccc([N+](=O)[O-])c(C(F)(F)F)c1 (stereo not shown) [Compound 251],55 nM,535 nM,–
CC(Cc1ccc(C(N)=O)cc1)NCCCc1ccc(F)cc1 (stereo not shown) [Compound 304],–,–,"Ki [1]: 5570 nM; CLint scaled at 0.08 µM [2]: 41 mL/min/kg; Ki (hERG channel; Table 4, mean, minimally n = 3): 1610 nM; Ki (VMAT2; [5]): 31 nM"

SMILES,Ki (VMAT2),Ki (hERG channel; [3]),also measured
CC(Cc1ccc(F)c(F)c1)NCCCc1ccc(Cl)cc1Cl (stereo not shown) [Compound 269],61 nM,279 nM,–
CC(Cc1ccc(F)cc1)NCCCc1cccnc1 (stereo not shown) [Compound 278],98 nM,3980 nM,–
CC(Cc1ccc(F)cc1)NCCCc1ccccn1 (stereo not shown) [Compound 279],200 nM,2400 nM,–
CC(Cc1ccc(F)c(F)c1)NCCCc1ccc(-c2ccnn2C)cc1 (stereo not shown) [Compound 244],118 nM,1030 nM,–
CSc1ccc(CCCNC(C)Cc2ccc(F)c(F)c2)cc1 (stereo not shown) [Compound 261],32 nM,316 nM,–
CC(Cc1ccc(F)c(F)c1)NCCCc1ccc(C(N)=O)c(Cl)c1 (stereo not shown) [Compound 297],21 nM,–,"Ki [1]: 5820 nM; CLint scaled at 0.08 µM [2]: < 17 mL/min/kg; Ki (hERG channel; Table 4, mean, minimally n = 3): 5020 nM"
CC(Cc1ccc(F)c(F)c1)NCCCc1cccc(N(C)C)c1 (stereo not shown) [Compound 266],171 nM,2460 nM,–
CC(C)C(Cc1ccc(F)cc1)NCCCc1ccccc1 (stereo not shown) [Compound 136],460 nM,–,–
CC(Cc1ccc(F)c(F)c1)NCCCc1ccc(C(N)=O)c(F)c1 (stereo not shown) [Compound 299],29 nM,–,"Ki [1]: 4210 nM; CLint scaled at 0.08 µM [2]: 19 mL/min/kg; Ki (hERG channel; Table 4, mean, minimally n = 3): 12100 nM"
CC(Cc1ccc2nccnc2c1)NCCCc1ccc(F)cc1 (stereo not shown) [Compound 308],13 nM,–,"Ki [1]: 2930 nM; CLint scaled at 0.08 µM [2]: 56 mL/min/kg; Ki (hERG channel; Table 4, mean, minimally n = 3): 1900 nM"
CC(Cc1ccc(F)c(F)c1)NCCCc1ccccc1-c1cccnc1 (stereo not shown) [Compound 282],88 nM,364 nM,–
FCC(Cc1ccccc1)NCCCc1ccc(F)cc1 (stereo not shown) [Compound 101],–,–,Ki (VMAT2; [4]): 17 nM
CC(Cc1ccc(F)c(F)c1)NCCCc1cccc(N)c1 (stereo not shown) [Compound 265],202 nM,5560 nM,–
CC(Cc1ccc(F)c(F)c1)NCCCc1ccccc1-c1ccnn1C (stereo not shown) [Compound 245],136 nM,2240 nM,–
FCC(Cc1ccccc1)NCCCc1ccccc1 (stereo not shown) [Compound 98],–,–,Microsomal stability assays: Species/Half-life (hr) Rat [2]: 0.1 h
CC(Cc1ccc(F)cc1)NCCCc1cccc(N)c1 (stereo not shown) [Compound 241],106 nM,6390 nM,–
NC(Cc1cn(Cc2ccccc2)cn1)C(=O)OCC(Cc1ccc(F)cc1)NCCCc1ccc(Br)cc1 (stereo not shown) [Compound 287],533 nM,–,–
CC(Cc1ccc([N+](=O)[O-])cc1)NCCCc1ccc(Br)cc1 (stereo not shown) [Compound 121],–,–,Microsomal stability assays: Species/Half-life (hr) Rat [2]: 0.1 h
CC(Cc1ccc(F)c(F)c1)NCCCc1ccccc1N (stereo not shown) [Compound 238],220 nM,3250 nM,–
CC(Cc1ccc(F)cc1)NCCCc1ccccc1 (stereo not shown) [Compound 126],–,–,Microsomal stability assays: Species/Half-life (hr) Rat [2]: 0.1 h
O=C(O)C(Cc1ccc(F)cc1)NCCCc1ccc(Br)cc1 (stereo not shown) [Compound 286],3130 nM,–,–
CC(Cc1ccc(F)c(F)c1)NCCCc1ccc(Cl)c(Cl)c1 (stereo not shown) [Compound 272],57 nM,462 nM,–
